19 molecules from US20230113037A1 (Bayer Aktiengesellschaft, priority 2019, published 2023) can be followed below.

Where two headings read alike, the source gives them in different places.

The target in assay [1] is T1, AHR (Mus musculus, UniProt P30561).
T1 sequence (P30561 1-848 P471L/N533S/M589L): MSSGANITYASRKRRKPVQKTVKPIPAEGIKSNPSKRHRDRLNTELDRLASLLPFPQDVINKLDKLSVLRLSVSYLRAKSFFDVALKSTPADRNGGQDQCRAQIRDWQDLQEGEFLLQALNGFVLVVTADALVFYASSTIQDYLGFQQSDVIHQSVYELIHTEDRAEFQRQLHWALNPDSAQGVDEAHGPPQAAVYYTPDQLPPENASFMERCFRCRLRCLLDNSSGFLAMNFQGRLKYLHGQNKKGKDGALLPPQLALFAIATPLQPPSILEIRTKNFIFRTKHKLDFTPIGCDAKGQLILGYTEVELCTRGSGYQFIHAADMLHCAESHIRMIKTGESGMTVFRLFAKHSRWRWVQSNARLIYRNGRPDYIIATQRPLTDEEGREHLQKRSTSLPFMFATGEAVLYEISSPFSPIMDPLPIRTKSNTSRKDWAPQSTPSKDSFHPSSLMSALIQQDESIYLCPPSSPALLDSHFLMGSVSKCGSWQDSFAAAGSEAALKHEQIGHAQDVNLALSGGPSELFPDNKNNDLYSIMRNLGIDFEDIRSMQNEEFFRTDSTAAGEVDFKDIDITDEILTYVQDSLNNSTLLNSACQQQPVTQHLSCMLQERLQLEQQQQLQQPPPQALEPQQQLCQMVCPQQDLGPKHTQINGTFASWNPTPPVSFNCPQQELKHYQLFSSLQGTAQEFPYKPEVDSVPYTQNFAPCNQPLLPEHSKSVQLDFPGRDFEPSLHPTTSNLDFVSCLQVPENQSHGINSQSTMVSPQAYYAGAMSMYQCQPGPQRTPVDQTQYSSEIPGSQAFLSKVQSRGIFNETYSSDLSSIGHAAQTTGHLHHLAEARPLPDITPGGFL
The experiment in a line: In vitro assay 3: antagonism in mouse cell line (AHR transactivation, firefly luciferase reporter, kynurenic acid prestimulated). The format is cell-based. Put shortly: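 Mouse cells stably carrying a DRE-driven, AHR-inducible firefly luciferase reporter were prestimulated with the endogenous agonist kynurenic acid before compound addition. Luciferase activity was measured by luminescence and normalized to positive and negative controls, with cells lacking kynurenic acid serving as full-inhibition control. Repeat tests are reported as mean or median.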

In assay [2] the target is T2, AHR (Homo sapiens, UniProt P35869).
T2 construct: U87 MG glioblastoma cells (ATCC #HTB-14) endogenously expressing AHR; endogenous in cells; host or cells: U87 MG glioblastoma cells (ATCC #HTB-14)
T2 sequence (P35869 11-848): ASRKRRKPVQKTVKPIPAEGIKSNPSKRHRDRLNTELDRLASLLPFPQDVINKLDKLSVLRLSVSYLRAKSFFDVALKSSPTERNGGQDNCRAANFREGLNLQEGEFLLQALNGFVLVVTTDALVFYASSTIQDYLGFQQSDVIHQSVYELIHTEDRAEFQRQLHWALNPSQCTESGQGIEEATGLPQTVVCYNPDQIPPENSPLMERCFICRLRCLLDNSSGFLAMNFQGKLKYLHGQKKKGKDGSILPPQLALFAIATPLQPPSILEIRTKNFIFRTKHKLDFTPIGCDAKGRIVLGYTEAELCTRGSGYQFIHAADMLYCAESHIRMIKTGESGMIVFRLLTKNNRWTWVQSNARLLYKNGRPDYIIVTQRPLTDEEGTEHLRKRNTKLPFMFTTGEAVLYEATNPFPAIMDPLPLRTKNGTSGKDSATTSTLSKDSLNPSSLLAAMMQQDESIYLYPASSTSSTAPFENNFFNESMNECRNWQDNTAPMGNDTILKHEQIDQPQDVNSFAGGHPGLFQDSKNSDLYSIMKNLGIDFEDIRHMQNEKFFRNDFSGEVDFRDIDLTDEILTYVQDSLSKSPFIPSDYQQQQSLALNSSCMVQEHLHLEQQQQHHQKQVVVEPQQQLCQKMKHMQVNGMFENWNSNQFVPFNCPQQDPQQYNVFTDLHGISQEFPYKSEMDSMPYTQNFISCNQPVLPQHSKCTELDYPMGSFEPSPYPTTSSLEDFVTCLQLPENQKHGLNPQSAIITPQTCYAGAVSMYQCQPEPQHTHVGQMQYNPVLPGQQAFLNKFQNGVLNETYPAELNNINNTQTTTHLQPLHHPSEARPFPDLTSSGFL
Briefly: In vitro assay 1: antagonism in human cell line (AHR transactivation, firefly luciferase reporter, kynurenic acid prestimulated). The format is cell-based. The following applies: AHR Antagonism Human IC50 [M]. The gist of the method:
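U87 MG glioblastoma cells with endogenous AHR, stably carrying a DRE-driven firefly luciferase reporter and constitutive Renilla reporter, prestimulated with kynurenic acid before compound addition. Firefly and Renilla read by dual luciferase; Renilla flags toxicity; normalized to controls (150 μM kynurenic acid + 5 μM staurosporine as full inhibition); repeat values averaged or median.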
(In general: In a reporter assay the amount or activity of a reporter protein is the signal.)

[3] abbreviates: Hepa 1c1c7 cells, 200 μM kynurenic acid, 20 hours, firefly luciferase reporter, read-out: AHR Antagonism Mouse IC50.
Where [4] appears, read: mouse Hepa 1c1c7 cells, 200 μM kynurenic acid, 20 hours, read-out: AHR Antagonism Mouse IC50.

A word on the IC50: it is the concentration that gives 50% inhibition. `C[C@@H]1CN(C(=O)[C@@H](C)Nc2nc3c(Br)cccc3c3nc(-c4cnn(C)c4)nn23)CCO1` [Example 906, (2R)-2-{[7-bromo-2-(1-methyl-1H-pyrazol-4-yl)[1,2,4]triazolo[1,5-c]quinazolin-5-yl]amino}-1-[(2R)-2-methylmorpholin-4-yl]propan-1-one]: the results for the IC50 on AHR [1] (setting [3]) and against AHR [2] (firefly luciferase reporter) were 19.5 nM and 2.3e-08 M, respectively.

`COc1ccc(-c2nc3c4ccc(C)cc4nc(N[C@@H]4CCCCNC4=O)n3n2)cc1` [Example 228, (3R)-3-{[2-(4-methoxyphenyl)-8-methyl[1,2,4]triazolo[1,5-c]quinazolin-5-yl]amino}azepan-2-one]: the 50% inhibitory concentration (IC50) at AHR [1] (setting [4]) is 38.9 nM; against AHR [2], 3.01e-08 M.

On to `O=C1NCCNC[C@H]1Nc1nc2ccccc2c2nc(-c3cnn(CC4CC4)c3)nn12` [Example 416, (6R)-6-({2-[1-(cyclopropylmethyl)-1H-pyrazol-4-yl][1,2,4]triazolo[1,5-c]quinazolin-5-yl}amino)-1,4-diazepan-5-one], for which the concentration for half-maximal inhibition (IC50) on AHR [1] (setting [4]) is 354 nM; against AHR [2], 2.1e-06 M.

Take `CC(C)[C@@H](Nc1nc2c(Br)cccc2c2nc(-c3cnn(C)c3)nn12)C(=O)N1CCOCC1` [Example 926, (2R)-2-{[7-bromo-2-(1-methyl-1H-pyrazol-4-yl)[1,2,4]triazolo[1,5-c]quinazolin-5-yl]amino}-3-methyl-1-(morpholin-4-yl)butan-1-one]: the IC50 on AHR [1] (setting [3]) worked out at 6.16 nM; on AHR [2] (firefly luciferase reporter) it was 3.45e-08 M.

`CCCCNC(=O)CNc1nc2ccccc2c2nc(-c3ccc(S(C)(=O)=O)cc3)nn12` [Example 438, N-butyl-N^2-{2-[4-(methanesulfonyl)phenyl][1,2,4]triazolo[1,5-c]quinazolin-5-yl}glycinamide]: the IC50 came out at 130 nM at AHR [1] (setting [4]) and 2.9e-07 M at AHR [2].

Consider `O=C1NCCCC[C@H]1Nc1nc2ccccc2c2nc(-c3ccc(O)cc3F)nn12` [Example 634, (3R)-3-{[2-(2-fluoro-4-hydroxyphenyl)[1,2,4]triazolo[1,5-c]quinazolin-5-yl]amino}azepan-2-one], for which the figures for the IC50 at AHR [1] (setting [4]) and at AHR [2] were 206 nM and 9.09e-08 M, respectively.

As for `COc1ccc(-c2nc3c4ccc(C(C)C)cc4nc(N[C@@H]4CCCCNC4=O)n3n2)cc1` [Example 395, (3R)-3-{[2-(4-Methoxyphenyl)-8-(propan-2-yl)[1,2,4]triazolo[1,5-c]quinazolin-5-yl]amino}azepan-2-one], the IC50 at AHR [1] (setting [4]) is 2410 nM; at AHR [2], 3e-07 M.

Regarding `COc1ccc(-c2nc3c4cccc(Br)c4nc(N[C@H]4CCCCNC4=O)n3n2)c(C(F)(F)F)c1` [Example 570, (3S)-3-({7-bromo-2-[4-methoxy-2-(trifluoromethyl)phenyl][1,2,4]triazolo[1,5-c]quinazolin-5-yl}amino)azepan-2-one], the concentration for half-maximal inhibition (IC50) at AHR [1] (setting [4]) came to 80.7 nM; on AHR [2], 8.08e-07 M.

Regarding `O=C1NCCNC[C@H]1Nc1nc2c(Br)cccc2c2nc(-c3cnn(CC4CC4)c3)nn12` [Example 968, (6R)-6-({7-bromo-2-[1-(cyclopropylmethyl)-1H-pyrazol-4-yl][1,2,4]triazolo[1,5-c]quinazolin-5-yl}amino)-1,4-diazepan-5-one], the IC50 was 7.46 nM on AHR [1] (setting [3]) and 6.97e-09 M on AHR [2] (firefly luciferase reporter).

Take `COc1cccc(-c2nc3c4cc(F)ccc4nc(NC4CCNC4=O)n3n2)c1` (centres unmarked) [Example 162, 3-{[9-fluoro-2-(3-methoxyphenyl)[1,2,4]triazolo[1,5-c]quinazolin-5-yl]amino}pyrrolidin-2-one]: the half-inhibitory concentration (IC50) on AHR [1] (setting [4]) worked out at 25.5 nM; against AHR [2] it was 2.23e-08 M.

For the molecule `Cc1ccc2nc(N[C@@H]3CCCCNC3=O)n3nc(-c4cn(C)nc4C(F)(F)F)nc3c2c1` [Example 407, (3R)-3-({9-methyl-2-[1-methyl-3-(trifluoromethyl)-1H-pyrazol-4-yl][1,2,4]triazolo[1,5-c]quinazolin-5-yl}amino)azepan-2-one], the IC50 on AHR [1] (setting [4]) was determined as 246 nM; at AHR [2], 3.1e-07 M.

Turning to `CCn1cc(-c2nc3c4cccc(OC)c4nc(N[C@@H]4CCCCNC4=O)n3n2)cn1` [Example 754, (3R)-3-{[2-(1-ethyl-1H-pyrazol-4-yl)-7-methoxy[1,2,4]triazolo[1,5-c]quinazolin-5-yl]amino}azepan-2-one], the values for the half-maximal inhibitory concentration (IC50) on AHR [1] (setting [4]) and against AHR [2] were 292 nM and 7.97e-08 M, respectively.

As to `CCn1cc(-c2nc3c4cccc(Br)c4nc(N[C@@H]4CCCCNC4=O)n3n2)cn1` [Example 831, (3R)-3-{[7-bromo-2-(1-ethyl-1H-pyrazol-4-yl)[1,2,4]triazolo[1,5-c]quinazolin-5-yl]amino}azepan-2-one], the 50% inhibitory concentration (IC50) at AHR [1] (setting [3]) amounted to 1.54 nM; against AHR [2] (firefly luciferase reporter), 8.88e-10 M.

For the molecule `O=C1NCCNC[C@H]1Nc1nc2c(C(F)(F)F)cccc2c2nc(-c3ccc(Cl)cc3)nn12` [Example 947, (6R)-6-{[2-(4-chlorophenyl)-7-(trifluoromethyl)[1,2,4]triazolo[1,5-c]quinazolin-5-yl]amino}-1,4-diazepan-5-one], the IC50 amounted to 0.324 nM at AHR [1] (setting [3]) and 5.91e-10 M at AHR [2] (firefly luciferase reporter).

As to `CCCCC(Nc1nc2ccccc2c2nc(-c3cccc(OC(F)(F)F)c3)nn12)C(N)=O` (single isomer, unassigned) [Example 324, N^2-{2-[3-(trifluoromethoxy)phenyl][1,2,4]triazolo[1,5-c]quinazolin-5-yl}-norleucinamide], the half-inhibitory concentration (IC50) on AHR [1] (read-out: AHR Antagonism Mouse IC50, mouse Hepa 1c1c7 cells, 200 μM kynurenic acid, 20 hours) was 16.4 nM; on AHR [2] it was 2.02e-08 M.

Take `CC[C@@H](Nc1nc2c(Br)cccc2c2nc(-c3ccnn3C)nn12)C(N)=O` [Example 800, (2R)-2-{[7-bromo-2-(1-methyl-1H-pyrazol-5-yl)[1,2,4]triazolo[1,5-c]quinazolin-5-yl]amino}butanamide]: the half-inhibitory concentration (IC50) on AHR [1] (read-out: AHR Antagonism Mouse IC50, Hepa 1c1c7 cells, 200 μM kynurenic acid, 20 hours, firefly luciferase reporter) came to 1.69 nM; against AHR [2] (firefly luciferase reporter), 2.37e-09 M.

On to `O=C1NCCCC[C@H]1Nc1nc2ccccc2c2nc(-c3ccccn3)nn12` [Example 124, (3R)-3-{[2-(pyridin-2-yl)[1,2,4]triazolo[1,5-c]quinazolin-5-yl]amino}azepan-2-one], for which the IC50 at AHR [1] (setting [4]) was found to be 54.1 nM; against AHR [2] it was 2.83e-08 M.

`CC(C)n1cc(-c2nc3c4cccc(C#N)c4nc(N[C@@H]4CNCCNC4=O)n3n2)cn1` [Example 931, 5-{[(6R)-5-oxo-1,4-diazepan-6-yl]amino}-2-[1-(propan-2-yl)-1H-pyrazol-4-yl][1,2,4]triazolo[1,5-c]quinazoline-7-carbonitrile]: the half-maximal inhibitory concentration (IC50) at AHR [1] (setting [3]) is 297 nM; at AHR [2] (firefly luciferase reporter), 1.3e-07 M.

For the molecule `CCCNC(=O)[C@@H](C)Nc1nc2c(Br)cccc2c2nc(-c3ccc(Cl)cc3OC(F)(F)F)nn12` [Example 693, N^2-{7-bromo-2-[4-chloro-2-(trifluoromethoxy)phenyl][1,2,4]triazolo[1,5-c]quinazolin-5-yl}-N-propyl-D-alaninamide], the IC50 on AHR [1] (setting [4]) turned out to be 2.52 nM; against AHR [2], 7.43e-09 M.
